Organism: Rattus norvegicus
Assay: Open TG-GATES - Regimen: Single
Assay type: toxicity, organism-based, Sprague-Dawley
Set-up: regimen Single, gender Male, age 6 weeks
Details: in vivo, po, route gavage; for APTT / Bas / Eos / Fbg / Hb / Ht / Lym / MCHC / MCV / Mono / Neu / PT / Plat / RBC / Ret / WBC: tissue Blood; for KIDNEY_L / KIDNEY_R / KIDNEY_TOTAL: tissue Kidney; for LIVER: tissue Liver; for ALP / ALT / AST / BUN / CRE / DBIL / GLC / IP / K / LDH / Na / PL / RALB / TBIL / TC / TG / TP / gamma-GTP: tissue Plasma
[1] = 1000 mg/kg, 3 h, dose level Middle
[2] = 1000 mg/kg, 6 h, dose level Middle
[3] = 1000 mg/kg, 9 h, dose level Middle
[4] = 1000 mg/kg, 24 h, dose level Middle
[5] = 2000 mg/kg, 3 h, dose level High
[6] = 2000 mg/kg, 6 h, dose level High
[7] = 2000 mg/kg, 9 h, dose level High
[8] = 2000 mg/kg, 24 h, dose level High

C#C[C@]1(O)CC[C@H]2[C@@H]3CCC4=Cc5oncc5C[C@]4(C)[C@H]3CC[C@@]21C [DANAZOL]
TERMINAL_BW [1]: 216 g
APTT [1]: 22.9 s
Bas [1]: 0%
Eos [1]: 1%
Fbg [1]: 300.8 mg/dL
Hb [1]: 13.5 g/dL
Ht [1]: 40.7%
Lym [1]: 79.2%
MCHC [1]: 33.1%
MCV [1]: 63.8 fL
Mono [1]: 2.4%
Neu [1]: 16.2%
PT [1]: 15.7 s
Plat [1]: 103.2 x10_4/uL
RBC [1]: 638.4 x10_4/ul
Ret [1]: 7.1%
WBC [1]: 83.8 x10_2/uL
KIDNEY_L [1]: 0.9 g
KIDNEY_R [1]: 0.9 g
KIDNEY_TOTAL [1]: 1.8 g
LIVER [1]: 9.6 g
ALP [1]: 1405.8 IU/L
ALT [1]: 41.8 IU/L
AST [1]: 78 IU/L
BUN [1]: 14 mg/dL
CRE [1]: 0.2 mg/dL
DBIL [1]: 0.002 mg/dL
GLC [1]: 178.6 mg/dL
IP [1]: 7.6 mg/dL
K [1]: 4.1 meq/L
LDH [1]: 128 IU/L
Na [1]: 142.4 meq/L
PL [1]: 129 mg/dL
RALB [1]: 3 g/dL
TBIL [1]: 0.022 mg/dL
TC [1]: 66.6 mg/dL
TG [1]: 73.4 mg/dL
TP [1]: 5.5 g/dL
gamma-GTP [1]: 1.8 IU/L
TERMINAL_BW [2]: 216.7 g
APTT [2]: 22.9 s
Bas [2]: 0%
Eos [2]: 1%
Fbg [2]: 306.4 mg/dL
Hb [2]: 13 g/dL
Ht [2]: 39.6%
Lym [2]: 74.2%
MCHC [2]: 32.8%
MCV [2]: 62.6 fL
Mono [2]: 3%
Neu [2]: 21%
PT [2]: 16.4 s
Plat [2]: 107.1 x10_4/uL
RBC [2]: 633.6 x10_4/ul
Ret [2]: 7.6%
WBC [2]: 97.7 x10_2/uL
KIDNEY_L [2]: 0.9 g
KIDNEY_R [2]: 1 g
KIDNEY_TOTAL [2]: 1.9 g
LIVER [2]: 9.5 g
ALP [2]: 1279 IU/L
ALT [2]: 34.4 IU/L
AST [2]: 70.8 IU/L
BUN [2]: 10.2 mg/dL
CRE [2]: 0.1 mg/dL
DBIL [2]: 0.002 mg/dL
GLC [2]: 181.8 mg/dL
IP [2]: 9.3 mg/dL
K [2]: 4.2 meq/L
LDH [2]: 139.8 IU/L
Na [2]: 141.4 meq/L
PL [2]: 131.6 mg/dL
RALB [2]: 3 g/dL
TBIL [2]: 0.026 mg/dL
TC [2]: 67 mg/dL
TG [2]: 60.4 mg/dL
TP [2]: 5.4 g/dL
gamma-GTP [2]: 1.4 IU/L
TERMINAL_BW [3]: 208.1 g
APTT [3]: 21.9 s
Bas [3]: 0%
Eos [3]: 0.6%
Fbg [3]: 302.4 mg/dL
Hb [3]: 12.9 g/dL
Ht [3]: 39.7%
Lym [3]: 77.8%
MCHC [3]: 32.6%
MCV [3]: 62.9 fL
Mono [3]: 2.2%
Neu [3]: 18.6%
PT [3]: 16.7 s
Plat [3]: 114.4 x10_4/uL
RBC [3]: 630.2 x10_4/ul
Ret [3]: 7.3%
WBC [3]: 82.7 x10_2/uL
KIDNEY_L [3]: 0.9 g
KIDNEY_R [3]: 1 g
KIDNEY_TOTAL [3]: 1.9 g
LIVER [3]: 8.6 g
ALP [3]: 1309.4 IU/L
ALT [3]: 33.6 IU/L
AST [3]: 66.8 IU/L
BUN [3]: 9.6 mg/dL
CRE [3]: 0.1 mg/dL
DBIL [3]: 0.014 mg/dL
GLC [3]: 178.8 mg/dL
IP [3]: 9.4 mg/dL
K [3]: 4.2 meq/L
LDH [3]: 139 IU/L
Na [3]: 141.4 meq/L
PL [3]: 109 mg/dL
RALB [3]: 3 g/dL
TBIL [3]: 0.038 mg/dL
TC [3]: 54.4 mg/dL
TG [3]: 53 mg/dL
TP [3]: 5.4 g/dL
gamma-GTP [3]: 1.6 IU/L
TERMINAL_BW [4]: 216 g
APTT [4]: 23.2 s
Bas [4]: 0%
Eos [4]: 1%
Fbg [4]: 290 mg/dL
Hb [4]: 13.6 g/dL
Ht [4]: 41%
Lym [4]: 81.5%
MCHC [4]: 33.2%
MCV [4]: 62.3 fL
Mono [4]: 2.8%
Neu [4]: 13.5%
PT [4]: 17.8 s
Plat [4]: 107.7 x10_4/uL
RBC [4]: 658.6 x10_4/ul
Ret [4]: 6.6%
WBC [4]: 73 x10_2/uL
KIDNEY_L [4]: 1 g
KIDNEY_R [4]: 1 g
KIDNEY_TOTAL [4]: 2 g
LIVER [4]: 10.5 g
ALP [4]: 1988.8 IU/L
ALT [4]: 42.4 IU/L
AST [4]: 72.2 IU/L
BUN [4]: 13.8 mg/dL
CRE [4]: 0.1 mg/dL
DBIL [4]: 0 mg/dL
GLC [4]: 184.6 mg/dL
IP [4]: 6.5 mg/dL
K [4]: 4.5 meq/L
LDH [4]: 186 IU/L
Na [4]: 141 meq/L
PL [4]: 123 mg/dL
RALB [4]: 3.1 g/dL
TBIL [4]: 0.002 mg/dL
TC [4]: 45.8 mg/dL
TG [4]: 233.4 mg/dL
TP [4]: 5.5 g/dL
gamma-GTP [4]: 1.2 IU/L
TERMINAL_BW [5]: 217 g
APTT [5]: 22.7 s
Bas [5]: 0%
Eos [5]: 1%
Fbg [5]: 312.2 mg/dL
Hb [5]: 13.3 g/dL
Ht [5]: 40.5%
Lym [5]: 77.2%
MCHC [5]: 33%
MCV [5]: 62.8 fL
Mono [5]: 3.2%
Neu [5]: 18.2%
PT [5]: 15.5 s
Plat [5]: 120.2 x10_4/uL
RBC [5]: 644 x10_4/ul
Ret [5]: 7.3%
WBC [5]: 73.3 x10_2/uL
KIDNEY_L [5]: 1 g
KIDNEY_R [5]: 1 g
KIDNEY_TOTAL [5]: 2 g
LIVER [5]: 9.7 g
ALP [5]: 1466 IU/L
ALT [5]: 45 IU/L
AST [5]: 78 IU/L
BUN [5]: 13.6 mg/dL
CRE [5]: 0.1 mg/dL
DBIL [5]: 0 mg/dL
GLC [5]: 178.2 mg/dL
IP [5]: 8.5 mg/dL
K [5]: 4.4 meq/L
LDH [5]: 162 IU/L
Na [5]: 141 meq/L
PL [5]: 138.4 mg/dL
RALB [5]: 3.1 g/dL
TBIL [5]: 0.02 mg/dL
TC [5]: 68.2 mg/dL
TG [5]: 99.2 mg/dL
TP [5]: 5.4 g/dL
gamma-GTP [5]: 1.8 IU/L
TERMINAL_BW [6]: 217.1 g
APTT [6]: 23.2 s
Bas [6]: 0%
Eos [6]: 1%
Fbg [6]: 282.6 mg/dL
Hb [6]: 12.6 g/dL
Ht [6]: 39%
Lym [6]: 75.4%
MCHC [6]: 32.3%
MCV [6]: 63.5 fL
Mono [6]: 2.8%
Neu [6]: 20.6%
PT [6]: 16.5 s
Plat [6]: 113.2 x10_4/uL
RBC [6]: 613 x10_4/ul
Ret [6]: 8.1%
WBC [6]: 86.2 x10_2/uL
KIDNEY_L [6]: 1 g
KIDNEY_R [6]: 1 g
KIDNEY_TOTAL [6]: 2 g
LIVER [6]: 9.6 g
ALP [6]: 1348.6 IU/L
ALT [6]: 34.8 IU/L
AST [6]: 69 IU/L
BUN [6]: 12.2 mg/dL
CRE [6]: 0.1 mg/dL
DBIL [6]: 0 mg/dL
GLC [6]: 178 mg/dL
IP [6]: 8.5 mg/dL
K [6]: 4.5 meq/L
LDH [6]: 159.6 IU/L
Na [6]: 140.4 meq/L
PL [6]: 122.4 mg/dL
RALB [6]: 2.9 g/dL
TBIL [6]: 0.028 mg/dL
TC [6]: 57.6 mg/dL
TG [6]: 71.6 mg/dL
TP [6]: 5.3 g/dL
gamma-GTP [6]: 1.8 IU/L
TERMINAL_BW [7]: 216.8 g
APTT [7]: 23.7 s
Bas [7]: 0%
Eos [7]: 0.8%
Fbg [7]: 276.2 mg/dL
Hb [7]: 12.7 g/dL
Ht [7]: 39.3%
Lym [7]: 74.6%
MCHC [7]: 32.3%
MCV [7]: 63.9 fL
Mono [7]: 2.8%
Neu [7]: 20.8%
PT [7]: 16.9 s
Plat [7]: 110.6 x10_4/uL
RBC [7]: 615.4 x10_4/ul
Ret [7]: 7.2%
WBC [7]: 77.3 x10_2/uL
KIDNEY_L [7]: 1 g
KIDNEY_R [7]: 1 g
KIDNEY_TOTAL [7]: 2 g
LIVER [7]: 9.1 g
ALP [7]: 1416.2 IU/L
ALT [7]: 31.6 IU/L
AST [7]: 73.8 IU/L
BUN [7]: 11.6 mg/dL
CRE [7]: 0.2 mg/dL
DBIL [7]: 0.004 mg/dL
GLC [7]: 180.8 mg/dL
IP [7]: 9.2 mg/dL
K [7]: 4.2 meq/L
LDH [7]: 128 IU/L
Na [7]: 141.2 meq/L
PL [7]: 110.8 mg/dL
RALB [7]: 2.9 g/dL
TBIL [7]: 0.032 mg/dL
TC [7]: 47.2 mg/dL
TG [7]: 99.4 mg/dL
TP [7]: 5.2 g/dL
gamma-GTP [7]: 1.4 IU/L
TERMINAL_BW [8]: 217.9 g
APTT [8]: 24.3 s
Bas [8]: 0%
Eos [8]: 1%
Fbg [8]: 286.4 mg/dL
Hb [8]: 13.3 g/dL
Ht [8]: 39.8%
Lym [8]: 74.8%
MCHC [8]: 33.4%
MCV [8]: 62.7 fL
Mono [8]: 2.4%
Neu [8]: 21.4%
PT [8]: 18.6 s
Plat [8]: 127.2 x10_4/uL
RBC [8]: 635.8 x10_4/ul
Ret [8]: 7.2%
WBC [8]: 84.4 x10_2/uL
KIDNEY_L [8]: 1 g
KIDNEY_R [8]: 1 g
KIDNEY_TOTAL [8]: 2 g
LIVER [8]: 10.5 g
ALP [8]: 1879.4 IU/L
ALT [8]: 44.4 IU/L
AST [8]: 76.8 IU/L
BUN [8]: 12.2 mg/dL
CRE [8]: 0.1 mg/dL
DBIL [8]: 0 mg/dL
GLC [8]: 186 mg/dL
IP [8]: 6.9 mg/dL
K [8]: 4.3 meq/L
LDH [8]: 219.6 IU/L
Na [8]: 141.6 meq/L
PL [8]: 121.2 mg/dL
RALB [8]: 3.1 g/dL
TBIL [8]: 0 mg/dL
TC [8]: 44.6 mg/dL
TG [8]: 266.6 mg/dL
TP [8]: 5.6 g/dL
gamma-GTP [8]: 1.2 IU/L
